Reference: patent US8802700B2 (Vertex Pharmaceuticals Incorporated, priority 2010, dated 2014)

Target: T1, ΔF508-CFTR (Homo sapiens, UniProt P13569, DEL508-508)
T1 construct: expressed in transfected cells
Experiment: Membrane potential optical assay (FRET voltage-sensor dyes, VIPR), identification of potentiator compounds
Format: cell-based
Settings: Table 3, assay not given; for Emax: read-out: % Activity (% Efficacy, relative efficacy)
Outline: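 Potentiator screen measured membrane potential via FRET between CC2-DMPE donor and DiSBAC2(3), read on VIPR II. Compound went in with the first addition of chloride-free gluconate bath; cells were ΔF508-CFTR-expressing NIH3T3 mouse fibroblasts, temperature-corrected at 27 °C for 24 h.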

T1 sequence (P13569 with tags, fused parts or gaps DEL508-508): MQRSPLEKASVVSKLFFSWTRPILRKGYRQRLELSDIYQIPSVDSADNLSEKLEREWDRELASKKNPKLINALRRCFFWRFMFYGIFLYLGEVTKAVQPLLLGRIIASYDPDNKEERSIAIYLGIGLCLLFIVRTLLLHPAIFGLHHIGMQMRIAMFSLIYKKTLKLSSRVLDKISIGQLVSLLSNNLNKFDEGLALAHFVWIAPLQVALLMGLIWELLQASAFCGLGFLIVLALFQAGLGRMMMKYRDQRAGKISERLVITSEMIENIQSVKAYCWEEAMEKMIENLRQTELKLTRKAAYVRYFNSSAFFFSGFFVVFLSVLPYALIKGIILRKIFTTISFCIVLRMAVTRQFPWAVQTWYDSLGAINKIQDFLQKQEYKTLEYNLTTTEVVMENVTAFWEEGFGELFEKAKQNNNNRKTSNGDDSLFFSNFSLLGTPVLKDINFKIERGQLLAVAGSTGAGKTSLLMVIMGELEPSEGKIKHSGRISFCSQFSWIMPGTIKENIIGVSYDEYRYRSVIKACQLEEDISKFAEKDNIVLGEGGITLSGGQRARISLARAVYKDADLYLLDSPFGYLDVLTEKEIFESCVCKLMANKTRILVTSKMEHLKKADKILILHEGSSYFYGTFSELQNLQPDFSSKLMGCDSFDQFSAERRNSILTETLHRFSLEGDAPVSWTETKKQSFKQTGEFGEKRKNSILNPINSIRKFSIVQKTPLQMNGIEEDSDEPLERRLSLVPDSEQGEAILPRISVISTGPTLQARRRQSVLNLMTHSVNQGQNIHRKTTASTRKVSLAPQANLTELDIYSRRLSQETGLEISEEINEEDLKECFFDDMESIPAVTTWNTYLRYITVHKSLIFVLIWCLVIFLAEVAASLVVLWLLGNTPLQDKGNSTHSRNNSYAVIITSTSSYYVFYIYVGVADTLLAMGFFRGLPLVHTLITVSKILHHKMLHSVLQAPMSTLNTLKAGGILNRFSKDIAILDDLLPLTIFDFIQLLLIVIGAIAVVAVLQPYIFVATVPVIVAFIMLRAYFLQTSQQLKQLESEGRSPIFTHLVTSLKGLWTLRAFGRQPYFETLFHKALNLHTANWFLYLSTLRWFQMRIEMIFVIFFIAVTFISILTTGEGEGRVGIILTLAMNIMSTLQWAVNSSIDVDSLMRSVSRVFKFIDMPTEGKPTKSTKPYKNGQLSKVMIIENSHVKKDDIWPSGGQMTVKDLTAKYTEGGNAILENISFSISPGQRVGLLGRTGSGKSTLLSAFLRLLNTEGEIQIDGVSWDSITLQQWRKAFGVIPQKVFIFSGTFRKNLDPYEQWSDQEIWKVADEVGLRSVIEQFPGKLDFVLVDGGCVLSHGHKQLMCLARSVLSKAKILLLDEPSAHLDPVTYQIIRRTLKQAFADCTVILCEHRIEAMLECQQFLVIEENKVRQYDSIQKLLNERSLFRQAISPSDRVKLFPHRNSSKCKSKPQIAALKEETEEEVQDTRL

Row | Compound | Emax [%] | EC50 [µM]
1 | O=C(Nc1ccc(C(F)(F)F)cc1Cl)c1c[nH]c2ccc(F)cc2c1=O [Compound 636, N-[2-chloro-4-(trifluoromethyl)phenyl]-6-fluoro-4-oxo-1H-quinoline-3-carboxamide] | < 25 | –
2 | O=C(Nc1ccc(OCc2ccccc2)cc1)c1c[nH]c2ccccc2c1=O [Compound 189, N-(4-benzyloxyphenyl)-4-oxo-1H-quinoline-3-carboxamide] | 25 to 100 | –
3 | COc1ccc(Cl)cc1-c1cc2cc[nH]c2cc1NC(=O)c1c[nH]c2ccccc2c1=O [Compound 1, N-[5-(5-chloro-2-methoxy-phenyl)-1H-indol-6-yl]-4-oxo-1H-quinoline-3-carboxamide] | 25 to 100 | –
4 | CCOC(=O)C(C)(C)c1ccc(NC(=O)c2c[nH]c3ccccc3c2=O)cc1 [Compound 420, 2-methyl-2-[4-[(4-oxo-1H-quinolin-3-yl)carbonylamino]phenyl]-propanoic acid ethyl ester] | 25 to 100 | –
5 | O=C(Nc1ccccc1-c1ccc2c(c1)OCO2)c1c[nH]c2ccccc2c1=O [Compound 135, N-(2-benzo[1,3]dioxol-5-ylphenyl)-4-oxo-1H-quinoline-3-carboxamide] | > 100 | –
6 | COCCOC(=O)NCC(C)(C)c1ccc(NC(=O)c2c[nH]c3ccccc3c2=O)cc1 [Compound 28, [2-methyl-2-[4-[(4-oxo-1H-quinolin-3-yl)carbonylamino]phenyl]-propyl]aminoformic acid 2-methoxyethyl ester] | 25 to 100 | –
7 | Cc1cccc2c(=O)c(C(=O)Nc3ccc(C(C)C)cc3C(F)(F)F)c[nH]c12 [Compound 637, N-[4-isopropyl-2-(trifluoromethyl)phenyl]-8-methyl-4-oxo-1H-quinoline-3-carboxamide] | < 25 | –
8 | Cc1cccc2[nH]cc(C(=O)Nc3ccc(OC(C)C)cc3C(F)(F)F)c(=O)c12 [Compound 547, N-[4-isopropoxy-2-(trifluoromethyl)phenyl]-5-methyl-4-oxo-1H-quinoline-3-carboxamide] | > 100 | –
9 | Nc1cc(Cl)cc(NC(=O)c2c[nH]c3ccccc3c2=O)c1 [Compound 131, N-(3-amino-5-chloro-phenyl)-4-oxo-1H-quinoline-3-carboxamide] | 25 to 100 | < 10
10 | O=C(Nc1ccccc1-c1cccc(C(F)(F)F)c1)c1c[nH]c2ccccc2c1=O [Compound 278, 4-oxo-N-[2-[3-(trifluoromethyl)phenyl]phenyl]-1H-quinoline-3-carboxamide] | 25 to 100 | –
11 | CN(C)c1ccc(-c2ccccc2NC(=O)c2c[nH]c3ccccc3c2=O)cc1 [Compound 12, N-[2-(4-dimethylaminophenyl)phenyl]-4-oxo-1H-quinoline-3-carboxamide] | 25 to 100 | –
12 | O=C(Nc1ccccc1)c1c[nH]c2cc(Cl)ccc2c1=O [Compound 411, 7-chloro-4-oxo-N-phenyl-1H-quinoline-3-carboxamide] | 25 to 100 | –
13 | CC(C)(C)c1cc2cc[nH]c2cc1NC(=O)c1c[nH]c2cccc(F)c2c1=O [Compound 656, 5-fluoro-4-oxo-N-(5-tert-butyl-1H-indol-6-yl)-1H-quinoline-3-carboxamide] | 25 to 100 | –
14 | CC(C)(C)c1ccc(NC(=O)c2c[nH]c3ccccc3c2=O)cc1C#N [Compound 13, N-(3-cyano-4-tert-butyl-phenyl)-4-oxo-1H-quinoline-3-carboxamide] | 25 to 100 | –
15 | COc1cccc(-c2ccccc2NC(=O)c2c[nH]c3ccccc3c2=O)c1 [Compound 283, N-[2-(3-methoxyphenyl)phenyl]-4-oxo-1H-quinoline-3-carboxamide] | > 100 | –
16 | CN1CCC(C)(C)c2ccc(NC(=O)c3c[nH]c4ccccc4c3=O)cc21 [Compound 710, 4-oxo-N-(1,4,4-trimethyl-2,3-dihydroquinolin-7-yl)-1H-quinoline-3-carboxamide] | 25 to 100 | –
17 | O=C(Nc1ccccc1-c1ccc(CO)cc1)c1c[nH]c2ccccc2c1=O [Compound 302, N-[2-[4-(hydroxymethyl)phenyl]phenyl]-4-oxo-1H-quinoline-3-carboxamide] | 25 to 100 | –
18 | COc1cc(N2CCCC2)ccc1NC(=O)c1c[nH]c2ccccc2c1=O [Compound 675, N-(2-methoxy-4-pyrrolidin-1-yl-phenyl)-4-oxo-1H-quinoline-3-carboxamide] | 25 to 100 | –
19 | CC(C)c1ccc(NC(=O)c2c[nH]c3ccc(F)cc3c2=O)cc1O [Compound 597, 6-fluoro-N-(3-hydroxy-4-isopropyl-phenyl)-4-oxo-1H-quinoline-3-carboxamide] | 25 to 100 | < 10
20 | CC(C)(C)c1cc(C(C)(C)C)c(NC(=O)c2c[nH]c3cc(O)ccc3c2=O)cc1O [Compound 652, 7-hydroxy-N-(5-hydroxy-2,4-ditert-butyl-phenyl)-4-oxo-1H-quinoline-3-carboxamide] | 25 to 100 | –
21 | O=C(Nc1ccccc1N1CCOCC1)c1c[nH]c2ccccc2c1=O [Compound 4, N-(2-morpholinophenyl)-4-oxo-1H-quinoline-3-carboxamide] | 25 to 100 | –

Row | Compound | Emax [%] | EC50 [µM]
22 | O=C(Nc1ccc(C(F)(F)F)cc1Cl)c1c[nH]c2cccc(O)c2c1=O [Compound 635, N-[2-chloro-4-(trifluoromethyl)phenyl]-5-hydroxy-4-oxo-1H-quinoline-3-carboxamide] | 25 to 100 | –
23 | CC(C)c1ccc(NC(=O)c2c[nH]c3ccccc3c2=O)cc1 [Compound 425, N-(4-isopropylphenyl)-4-oxo-1H-quinoline-3-carboxamide] | 25 to 100 | < 10
24 | O=C(Nc1ccccc1-c1cc(F)ccc1F)c1c[nH]c2ccccc2c1=O [Compound 384, N-[2-(2,5-difluorophenyl)phenyl]-4-oxo-1H-quinoline-3-carboxamide] | 25 to 100 | –
25 | O=C(Nc1ccc(C2CCCCC2)c(O)c1)c1c[nH]c2ccccc2c1=O [Compound 564, N-(4-cyclohexyl-3-hydroxy-phenyl)-4-oxo-1H-quinoline-3-carboxamide] | 25 to 100 | –
26 | CC1(c2ccc(NC(=O)c3c[nH]c4ccccc4c3=O)cc2)COC1 [Compound 523, N-[4-(3-methyloxetan-3-yl)phenyl]-4-oxo-1H-quinoline-3-carboxamide] | 25 to 100 | –
27 | COc1ccc2[nH]cc(C(=O)Nc3ccc(N4CCC(C)(C)C4)cc3C(F)(F)F)c(=O)c2c1 [Compound 504, N-[4-(3,3-dimethylpyrrolidin-1-yl)-2-(trifluoromethyl)phenyl]-6-methoxy-4-oxo-1H-quinoline-3-carboxamide] | 25 to 100 | –
28 | Cc1cccc(NC(=O)c2c[nH]c3ccccc3c2=O)c1 [Compound 449, N-(m-tolyl)-4-oxo-1H-quinoline-3-carboxamide] | 25 to 100 | –
29 | Nc1cc(NC(=O)c2c[nH]c3ccccc3c2=O)ccc1OC(F)(F)F [Compound 58, N-[3-amino-4-(trifluoromethoxy)phenyl]-4-oxo-1H-quinoline-3-carboxamide] | 25 to 100 | –
30 | CCc1cc(C#N)ccc1NC(=O)c1c[nH]c2ccccc2c1=O [Compound 451, N-(4-cyano-2-ethyl-phenyl)-4-oxo-1H-quinoline-3-carboxamide] | 25 to 100 | –
31 | CC(C)(C)COC(=O)NCC(C)(C)c1ccc(NC(=O)c2c[nH]c3ccccc3c2=O)cc1 [Compound 341, [2-methyl-2-[4-[(4-oxo-1H-quinolin-3-yl)carbonylamino]phenyl]-propyl]aminoformic acid neopentyl ester] | 25 to 100 | –
32 | COC(=O)[C@@H]1CCCCN1c1ccc(NC(=O)c2c[nH]c3ccccc3c2=O)c(C(F)(F)F)c1 [Compound 715, (S)-methyl 1-(4-(4-oxo-1,4-dihydroquinoline-3-carboxamido)-3-(trifluoromethyl)phenyl)piperidine-2-carboxylate] | 25 to 100 | –
33 | O=C(Nc1ccc(Sc2ccccc2)cc1)c1c[nH]c2ccccc2c1=O [Compound 470, 4-oxo-N-(4-phenylsulfanylphenyl)-1H-quinoline-3-carboxamide] | 25 to 100 | –
34 | COc1ccc(NC(=O)c2c[nH]c3ccccc3c2=O)c(OC)n1 [Compound 193, N-(2,6-dimethoxy-3-pyridyl)-4-oxo-1H-quinoline-3-carboxamide] | 25 to 100 | –
35 | O=C(Nc1ccccc1-c1cc(Cl)cc(Cl)c1)c1c[nH]c2ccccc2c1=O [Compound 367, N-[2-(3,5-dichlorophenyl)phenyl]-4-oxo-1H-quinoline-3-carboxamide] | 25 to 100 | –
36 | O=C(Nc1cccc(S(=O)(=O)N2CCCC2)c1)c1c[nH]c2ccccc2c1=O [Compound 24, 4-oxo-N-(3-pyrrolidin-1-ylsulfonylphenyl)-1H-quinoline-3-carboxamide] | < 25 | –
37 | O=C(Nc1ccc2oc(-c3ccccc3)nc2c1)c1c[nH]c2ccccc2c1=O [Compound 376, 4-oxo-N-(2-phenylbenzooxazol-5-yl)-1H-quinoline-3-carboxamide] | < 25 | –
38 | CC(C)(C)c1cc(C(C)(C)C)c(NC(=O)c2c[nH]c3cc(OC(F)(F)F)ccc3c2=O)cc1O [Compound 694, N-(5-hydroxy-2,4-ditert-butyl-phenyl)-4-oxo-7-(trifluoromethoxy)-1H-quinoline-3-carboxamide] | 25 to 100 | –
39 | O=C(Nc1ccc2cc[nH]c2c1)c1cnc2cc(C(F)(F)F)cc(C(F)(F)F)c2c1O [Compound 130, 4-hydroxy-N-(1H-indol-6-yl)-5,7-bis(trifluoromethyl)quinoline-3-carboxamide] | 25 to 100 | –
40 | CC(=O)N1CCCC(C)(C)c2ccc(NC(=O)c3c[nH]c4ccccc4c3=O)cc21 [Compound 109, N-(1-acetyl-2,3,4,5-tetrahydro-5,5-dimethyl-1H-benzo[b]azepin-8-yl)-1,4-dihydro-4-oxoquinoline-3-carboxamide] | 25 to 100 | 10 to 25
41 | CC(C)(C)c1cc(C(C)(C)C)c(NC(=O)c2c[nH]c3ccc(Br)cc3c2=O)cc1O [Compound 553, 6-bromo-N-(5-hydroxy-2,4-ditert-butyl-phenyl)-4-oxo-1H-quinoline-3-carboxamide] | 25 to 100 | –
42 | CSc1ccc(-c2ccccc2NC(=O)c2c[nH]c3ccccc3c2=O)cc1 [Compound 223, N-[2-(4-methylsulfanylphenyl)phenyl]-4-oxo-1H-quinoline-3-carboxamide] | 25 to 100 | –
